# From US20250197864A1, “LNCRNA TRANSCRIPTS IN MELANOMAGENESIS” (The Regents of the University of California, priority 2021, published 2025)
# System: gene expression in D04 melanoma cells
# Assay: RNA-Seq differential expression analysis (DESeq2)
# Format: cell-based, human
# Protocol: Total RNA was isolated using the RNeasy mini Kit (QIAGEN) following the manufacturer's protocol. Quality check for extracted RNA was done using 2100 Bioanalyzer (Agilent Technologies, USA) or Tapestation System (Agilent Technologies, USA). […] For samples used for identification of MAPK-responsive lncRNAs, paired-end, 101-bp sequencing was performed by Centrillion Genomic Services (Centrillion Biosciences, USA) on an Illumina HiSeq 2000. For DE gene analysis of ASO-transfected D04 samples, paired-end, 2×150-bp sequencing was performed by Genewiz (USA) on a Illumina HiSeq.
# Sequence reads were aligned to the human genome (hg19) using TopHat (Version 2.0.11).
# Differential expression (DE) analysis was done using DESeq2. Differentially expressed genes were defined by more than 1.5-fold changes (log 2 >0.58 or <−0.58) in expression with FDR<0.05. GO term analysis was done using DAVID Functional Annotation Clustering analysis.
# To examine the biomolecular changes upon TRASH-inhibition in melanoma, D04 cells were treated with TRASH-ASOs (SEQ ID NO:15) and Control-ASOs and RNA was extracted and used for RNA-Seq. […] These GO terms consisted of genes encoding growth factors, tyrosine kinases, G protein coupled receptor subunits, and collagen subunits. Scatter plot diagram showing differential gene expression after TRASH-ASO treatment compared to Control-ASO treatment. (cut-off for significance was adjusted p-value <0.05). Data was obtained from RNA-Seq of D04 melanoma cells, treatment period was three days. (FIG. 5c)
sequence,measurement,setting,value
"GACTGGAGATAATTAA (gapmer, pattern not given here) [SEQ ID NO: 15, GapmeR ASO targeting AC004540.4 (TRASH), exon region of both isoforms; used for in vitro experiments]",log2FoldChange,PPM1L (ENSG00000163590),−0.7017
same,log2FoldChange,PRICKLE2 (ENSG00000163637),−0.6639
same,log2FoldChange,PRR5L (ENSG00000135362),−0.6328
same,log2FoldChange,PTPRN2 (ENSG00000155093),2.844
same,log2FoldChange,PTPRR (ENSG00000153233),1.4591
same,log2FoldChange,PURPL (ENSG00000250337),−0.6494
same,log2FoldChange,PYROXD2 (ENSG00000119943),−0.6602
same,log2FoldChange,RAB11FIP3 (ENSG00000090565),−0.5869
same,log2FoldChange,RAB26 (ENSG00000167964),−0.6129
same,log2FoldChange,RAB39B (ENSG00000155961),2.06
same,log2FoldChange,RASEF (ENSG00000165105),1.674
same,log2FoldChange,RASL10B (ENSG00000270885),−0.6526
same,log2FoldChange,RBMS3 (ENSG00000144642),−0.6061
same,log2FoldChange,RFTN2 (ENSG00000162944),−0.6802
same,log2FoldChange,RGS4 (ENSG00000117152),1.366
same,log2FoldChange,RGS5 (ENSG00000143248),−0.6262
same,log2FoldChange,RINL (ENSG00000187994),1.242
same,log2FoldChange,ROBO4 (ENSG00000154133),2.692
same,log2FoldChange,RPLPOP2 (ENSG00000243742),1.744
same,log2FoldChange,RUNDC3A (ENSG00000108309),1.302
same,log2FoldChange,S1PR2 (ENSG00000267534),−0.6769
same,log2FoldChange,S100A3 (ENSG00000188015),−0.6246
same,log2FoldChange,SAMD5 (ENSG00000203727),−0.6969
same,log2FoldChange,SAMD9L (ENSG00000177409),−0.5978
same,log2FoldChange,SBSN (ENSG00000189001),1.621
same,log2FoldChange,SBSPON (ENSG00000164764),−0.705
same,log2FoldChange,SCG2 (ENSG00000171951),−0.6659
same,log2FoldChange,SCG5 (ENSG00000166922),1.621
same,log2FoldChange,SCN1B (ENSG00000105711),−0.608
same,log2FoldChange,SCN4A (ENSG00000007314),2.301
same,log2FoldChange,SDCCAG8 (ENSG00000054282),−0.7066
same,log2FoldChange,SERPINB7 (ENSG00000166396),1.415
same,log2FoldChange,SERPINI2 (ENSG00000114204),2.645
same,log2FoldChange,SH2D1B (ENSG00000198574),1.495
same,log2FoldChange,SHROOM4 (ENSG00000158352),−0.6228
same,log2FoldChange,SIGLEC15 (ENSG00000197046),2.101
same,log2FoldChange,SIL1 (ENSG00000120725),−0.6521
same,log2FoldChange,SLAMF7 (ENSG00000026751),2.821
same,log2FoldChange,SLAMF9 (ENSG00000162723),2.487
same,log2FoldChange,SLC45A2 (ENSG00000164175),−0.6697
same,log2FoldChange,SLCO4C1 (ENSG00000173930),−0.6425
same,log2FoldChange,SOCS2 (ENSG00000120833),−0.5921
same,log2FoldChange,SOCS3 (ENSG00000184557),−0.6206
same,log2FoldChange,SOX2 (ENSG00000181449),−0.7006
same,log2FoldChange,SPANXC (ENSG00000198573),1.331
same,log2FoldChange,SPINK1 (ENSG00000164266),3.07
same,log2FoldChange,SPINT2 (ENSG00000167642),2.192
same,log2FoldChange,SPRY2 (ENSG00000136158),−0.6059
same,log2FoldChange,SPRY4 (ENSG00000187678),−0.6537
same,log2FoldChange,ST6GALNAC2 (ENSG00000070731),−0.6963
same,log2FoldChange,ST6GALNAC5 (ENSG00000117069),−0.6397
same,log2FoldChange,STRA6 (ENSG00000137868),−0.6369
same,log2FoldChange,STX17-AS1 (ENSG00000255145),1.8172
same,log2FoldChange,SULT1A1 (ENSG00000196502),−0.7045
same,log2FoldChange,SYNGR1 (ENSG00000100321),−0.6288
same,log2FoldChange,SYT11 (ENSG00000132718),1.326
same,log2FoldChange,SYT16 (ENSG00000139973),1.62
same,log2FoldChange,TEK (ENSG00000120156),−0.6347
same,log2FoldChange,TENM1 (ENSG00000009694),−0.7059
same,log2FoldChange,TFAP2E (ENSG00000116819),−0.6597
same,log2FoldChange,TGFB3 (ENSG00000119699),−0.6408
same,log2FoldChange,TGFBR3 (ENSG00000069702),−0.639
same,log2FoldChange,THSD4 (ENSG00000187720),−0.6139
same,log2FoldChange,TINAGL1 (ENSG00000142910),1.287
same,log2FoldChange,TM4SF1 (ENSG00000169908),1.389
same,log2FoldChange,TMC8 (ENSG00000167895),1.259
same,log2FoldChange,TMEM117 (ENSG00000139173),−0.6405
same,log2FoldChange,TMEM135 (ENSG00000166575),−0.6788
same,log2FoldChange,TNFRSF11B (ENSG00000164761),−0.5845
same,log2FoldChange,TNFSF8 (ENSG00000106952),1.66
same,log2FoldChange,TNFSF10 (ENSG00000121858),−0.6562
same,log2FoldChange,TNFSF11 (ENSG00000120659),−0.6111
same,log2FoldChange,TOM1L2 (ENSG00000175662),−0.6126
same,log2FoldChange,TRIB2 (ENSG00000071575),−0.6666
same,log2FoldChange,TRIML2 (ENSG00000179046),2.081
same,log2FoldChange,TSPAN9 (ENSG00000011105),−0.6484
same,log2FoldChange,VIPR2 (ENSG00000106018),1.91
same,log2FoldChange,VWA1 (ENSG00000179403),−0.6674
same,log2FoldChange,VWCE (ENSG00000167992),1.639
same,log2FoldChange,XAF1 (ENSG00000132530),−0.6048
same,log2FoldChange,XG (ENSG00000124343),2.256
same,log2FoldChange,ZC3H6 (ENSG00000188177),−0.6449
same,log2FoldChange,ZDHHC11 (ENSG00000188818),1.322
same,log2FoldChange,ZFYVE28 (ENSG00000159733),−0.6436
same,log2FoldChange,ZHX2 (ENSG00000178764),−0.5891
same,log2FoldChange,ZNF165 (ENSG00000197279),1.226
same,log2FoldChange,ZNF185 (ENSG00000147394),1.367
same,log2FoldChange,ZSCAN31 (ENSG00000235109),−0.6972
